Test results as given in patent publication US20240327364A1, “THERAPEUTIC TARGETING OF GPR68 TO INDUCE FERROPTOSIS” (University Of Maryland, Baltimore, priority 2023, published 2024).

Tests used:
PRKX = target: T1, PRKX (Homo sapiens, UniProt P51817); experiment: KinomeScan; format: binding; settings: read-out: % Control
T1 construct: purchased DiscoveRx (Fremont, CA)

LTK = target: T2, LTK (Homo sapiens, UniProt P29376); experiment: KinomeScan; format: binding; settings: read-out: % Control
T2 construct: purchased DiscoveRx
T2 sequence (P29376 17-864): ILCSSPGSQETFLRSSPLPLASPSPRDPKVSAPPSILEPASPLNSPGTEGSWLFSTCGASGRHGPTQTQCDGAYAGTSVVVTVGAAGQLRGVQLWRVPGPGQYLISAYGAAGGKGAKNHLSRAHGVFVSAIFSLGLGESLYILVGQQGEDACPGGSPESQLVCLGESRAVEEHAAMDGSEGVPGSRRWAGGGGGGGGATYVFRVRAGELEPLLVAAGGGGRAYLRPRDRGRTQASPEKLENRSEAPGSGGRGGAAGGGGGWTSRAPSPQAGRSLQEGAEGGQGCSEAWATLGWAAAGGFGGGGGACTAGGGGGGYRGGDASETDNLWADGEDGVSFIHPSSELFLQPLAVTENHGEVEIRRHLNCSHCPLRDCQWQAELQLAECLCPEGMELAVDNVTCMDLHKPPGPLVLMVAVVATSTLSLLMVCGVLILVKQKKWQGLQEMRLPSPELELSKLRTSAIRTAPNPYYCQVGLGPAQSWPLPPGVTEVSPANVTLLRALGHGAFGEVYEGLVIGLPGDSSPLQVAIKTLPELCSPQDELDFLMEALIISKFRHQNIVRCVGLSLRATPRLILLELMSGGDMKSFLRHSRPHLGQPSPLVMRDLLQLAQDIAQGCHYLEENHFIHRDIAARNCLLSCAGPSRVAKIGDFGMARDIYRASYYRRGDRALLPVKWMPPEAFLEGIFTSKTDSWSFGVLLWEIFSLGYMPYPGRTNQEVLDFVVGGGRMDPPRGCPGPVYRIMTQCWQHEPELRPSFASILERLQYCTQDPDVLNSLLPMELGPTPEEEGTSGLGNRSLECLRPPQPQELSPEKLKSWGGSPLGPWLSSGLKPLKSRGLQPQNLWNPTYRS

PIK3CA(C420R) = target: T3, PIK3CA(C420R) (Homo sapiens, UniProt P42336, C420R); experiment: KinomeScan; format: binding; settings: read-out: % Control
T3 construct: purchased DiscoveRx (Fremont, CA)

PCTK3 = target: T4, PCTK3 (Homo sapiens, UniProt Q07002); experiment: KinomeScan; format: binding; settings: read-out: % Control
T4 construct: purchased DiscoveRx
T4 sequence (Q07002 whole entry): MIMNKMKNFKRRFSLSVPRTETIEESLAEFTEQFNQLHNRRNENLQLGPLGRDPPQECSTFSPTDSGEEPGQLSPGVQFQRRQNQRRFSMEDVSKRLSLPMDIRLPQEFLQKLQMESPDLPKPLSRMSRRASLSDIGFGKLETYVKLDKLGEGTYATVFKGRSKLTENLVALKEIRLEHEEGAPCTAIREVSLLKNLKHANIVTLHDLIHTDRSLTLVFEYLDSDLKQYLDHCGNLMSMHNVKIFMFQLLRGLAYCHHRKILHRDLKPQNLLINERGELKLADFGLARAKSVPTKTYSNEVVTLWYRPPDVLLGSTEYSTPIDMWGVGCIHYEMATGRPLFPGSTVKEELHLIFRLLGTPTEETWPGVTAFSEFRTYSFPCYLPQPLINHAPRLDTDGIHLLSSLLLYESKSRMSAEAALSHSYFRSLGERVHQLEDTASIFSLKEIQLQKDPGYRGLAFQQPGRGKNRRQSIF

KIT(L576P) = target: T5, KIT(L576P) (Homo sapiens, UniProt P10721, L576P); experiment: KinomeScan; format: binding; settings: read-out: % Control
T5 construct: purchased DiscoveRx
T5 sequence (P10721 26-976 L576P): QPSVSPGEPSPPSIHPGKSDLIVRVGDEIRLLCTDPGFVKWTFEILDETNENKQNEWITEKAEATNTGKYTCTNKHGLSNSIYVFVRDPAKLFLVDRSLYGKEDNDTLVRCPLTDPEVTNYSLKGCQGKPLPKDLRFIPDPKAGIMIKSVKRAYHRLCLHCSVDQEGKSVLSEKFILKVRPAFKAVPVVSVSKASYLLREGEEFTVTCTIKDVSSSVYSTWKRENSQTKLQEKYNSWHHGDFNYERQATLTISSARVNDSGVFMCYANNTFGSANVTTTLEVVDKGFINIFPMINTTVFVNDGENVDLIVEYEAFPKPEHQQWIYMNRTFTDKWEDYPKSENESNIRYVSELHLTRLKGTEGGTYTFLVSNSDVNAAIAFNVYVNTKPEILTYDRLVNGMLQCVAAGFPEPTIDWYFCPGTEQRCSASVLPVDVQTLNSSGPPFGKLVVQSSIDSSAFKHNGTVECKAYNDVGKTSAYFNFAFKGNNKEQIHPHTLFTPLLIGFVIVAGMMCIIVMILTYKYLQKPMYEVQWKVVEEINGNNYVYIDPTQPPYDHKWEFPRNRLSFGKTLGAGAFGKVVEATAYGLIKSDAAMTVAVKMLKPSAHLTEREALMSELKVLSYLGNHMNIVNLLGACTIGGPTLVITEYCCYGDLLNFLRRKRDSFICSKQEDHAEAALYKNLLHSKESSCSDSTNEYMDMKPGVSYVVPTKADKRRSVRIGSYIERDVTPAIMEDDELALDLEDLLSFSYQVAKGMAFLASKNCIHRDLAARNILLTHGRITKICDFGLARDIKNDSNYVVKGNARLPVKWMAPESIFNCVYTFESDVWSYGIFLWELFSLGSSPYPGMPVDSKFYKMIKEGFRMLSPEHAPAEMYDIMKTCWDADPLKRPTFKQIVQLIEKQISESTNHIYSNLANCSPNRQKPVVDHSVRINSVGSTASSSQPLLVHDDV

DAPK2 = target: T6, DAPK2 (Homo sapiens, UniProt Q9UIK4); experiment: KinomeScan; format: binding; settings: read-out: % Control
T6 construct: purchased DiscoveRx (Fremont, CA), KinomeScan service

MYO3B = target: T7, MYO3B (Homo sapiens, UniProt Q8WXR4); experiment: KinomeScan; format: binding; settings: read-out: % Control
T7 construct: purchased DiscoveRx
T7 sequence (Q8WXR4 whole entry): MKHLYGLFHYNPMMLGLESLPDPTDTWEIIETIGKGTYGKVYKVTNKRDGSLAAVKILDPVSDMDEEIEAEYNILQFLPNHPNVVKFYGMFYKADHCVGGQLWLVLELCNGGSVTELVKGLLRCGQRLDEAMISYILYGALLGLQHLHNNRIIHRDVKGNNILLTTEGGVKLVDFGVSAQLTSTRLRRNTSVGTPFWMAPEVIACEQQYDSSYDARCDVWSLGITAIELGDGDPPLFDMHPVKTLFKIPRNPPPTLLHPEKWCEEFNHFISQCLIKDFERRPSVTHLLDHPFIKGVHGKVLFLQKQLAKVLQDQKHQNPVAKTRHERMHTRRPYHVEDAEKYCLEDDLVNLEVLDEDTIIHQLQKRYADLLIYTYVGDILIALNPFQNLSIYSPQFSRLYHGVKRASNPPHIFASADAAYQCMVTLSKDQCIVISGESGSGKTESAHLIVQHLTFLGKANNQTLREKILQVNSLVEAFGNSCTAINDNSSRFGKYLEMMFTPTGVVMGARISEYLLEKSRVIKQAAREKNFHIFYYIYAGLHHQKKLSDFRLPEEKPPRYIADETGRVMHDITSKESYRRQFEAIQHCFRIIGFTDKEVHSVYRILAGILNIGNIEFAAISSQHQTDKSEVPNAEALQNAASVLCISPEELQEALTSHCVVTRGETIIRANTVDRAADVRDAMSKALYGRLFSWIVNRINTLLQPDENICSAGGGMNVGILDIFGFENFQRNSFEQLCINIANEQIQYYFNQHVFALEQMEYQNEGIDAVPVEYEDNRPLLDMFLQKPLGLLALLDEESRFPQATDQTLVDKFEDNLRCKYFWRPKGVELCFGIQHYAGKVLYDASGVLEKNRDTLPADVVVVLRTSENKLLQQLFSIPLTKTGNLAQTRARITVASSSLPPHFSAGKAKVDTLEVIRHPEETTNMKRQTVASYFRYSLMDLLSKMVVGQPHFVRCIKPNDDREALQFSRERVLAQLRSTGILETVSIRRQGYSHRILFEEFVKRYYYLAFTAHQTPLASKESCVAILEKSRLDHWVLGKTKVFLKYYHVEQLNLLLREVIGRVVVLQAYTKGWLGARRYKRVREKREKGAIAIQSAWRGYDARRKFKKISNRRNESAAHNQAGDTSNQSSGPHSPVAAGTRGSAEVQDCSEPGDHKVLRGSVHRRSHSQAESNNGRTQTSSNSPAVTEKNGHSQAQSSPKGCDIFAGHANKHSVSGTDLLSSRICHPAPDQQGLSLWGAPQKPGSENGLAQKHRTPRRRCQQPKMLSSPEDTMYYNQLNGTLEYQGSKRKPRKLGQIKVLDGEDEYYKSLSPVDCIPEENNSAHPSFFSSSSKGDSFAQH

CHEK1 = CHEK1 (Homo sapiens, UniProt O14757); experiment: KinomeScan; format: binding; settings: read-out: % Control
CHEK1, sequence (O14757 whole entry): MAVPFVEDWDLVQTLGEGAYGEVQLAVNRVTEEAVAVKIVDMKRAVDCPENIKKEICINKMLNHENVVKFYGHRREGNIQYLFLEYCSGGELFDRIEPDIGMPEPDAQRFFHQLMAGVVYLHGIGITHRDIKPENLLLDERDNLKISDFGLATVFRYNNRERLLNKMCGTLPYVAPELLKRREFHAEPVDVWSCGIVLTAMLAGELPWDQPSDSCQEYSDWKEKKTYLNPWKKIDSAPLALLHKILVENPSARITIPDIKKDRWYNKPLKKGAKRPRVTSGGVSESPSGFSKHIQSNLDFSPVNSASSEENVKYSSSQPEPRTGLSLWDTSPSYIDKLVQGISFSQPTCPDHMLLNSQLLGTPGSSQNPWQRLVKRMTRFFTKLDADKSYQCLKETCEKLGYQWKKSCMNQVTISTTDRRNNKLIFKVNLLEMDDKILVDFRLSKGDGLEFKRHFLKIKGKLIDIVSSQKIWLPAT

DCAMKL1 = target: T8, DCAMKL1 (Homo sapiens, UniProt O15075); experiment: KinomeScan; format: binding; settings: read-out: % Control
T8 construct: purchased DiscoveRx (Fremont, CA), KinomeScan service
T8 sequence (O15075 whole entry): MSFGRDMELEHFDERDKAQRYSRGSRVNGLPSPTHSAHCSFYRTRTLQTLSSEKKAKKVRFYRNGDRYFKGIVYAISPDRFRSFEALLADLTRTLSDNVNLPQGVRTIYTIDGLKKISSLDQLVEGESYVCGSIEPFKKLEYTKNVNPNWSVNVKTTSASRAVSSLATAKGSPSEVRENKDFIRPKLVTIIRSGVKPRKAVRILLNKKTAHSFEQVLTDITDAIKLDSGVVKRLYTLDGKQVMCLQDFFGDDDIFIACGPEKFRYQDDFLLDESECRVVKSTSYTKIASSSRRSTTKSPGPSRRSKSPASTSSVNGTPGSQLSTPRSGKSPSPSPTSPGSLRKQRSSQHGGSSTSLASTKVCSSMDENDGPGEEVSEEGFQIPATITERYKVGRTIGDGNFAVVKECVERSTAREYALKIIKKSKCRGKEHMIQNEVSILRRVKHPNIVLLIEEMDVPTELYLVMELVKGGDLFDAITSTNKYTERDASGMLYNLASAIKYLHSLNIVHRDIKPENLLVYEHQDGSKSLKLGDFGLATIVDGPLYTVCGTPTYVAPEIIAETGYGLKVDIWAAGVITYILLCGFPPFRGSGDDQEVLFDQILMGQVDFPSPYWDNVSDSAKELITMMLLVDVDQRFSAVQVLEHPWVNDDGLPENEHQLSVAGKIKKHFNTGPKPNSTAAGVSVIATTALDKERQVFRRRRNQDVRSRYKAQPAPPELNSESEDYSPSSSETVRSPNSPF

FLT4 = target: T9, FLT4 (Homo sapiens, UniProt P35916); experiment: KinomeScan; format: binding; settings: read-out: % Control
T9 construct: purchased DiscoveRx (Fremont, CA)

PIK3CA(E545A) = target: T10, PIK3CA(E545A) (Homo sapiens, UniProt P42336, E545A); experiment: KinomeScan; format: binding; settings: read-out: % Control
T10 construct: purchased DiscoveRx (Fremont, CA)

FLT3(D835Y) = target: T11, FLT3(D835Y) (Homo sapiens, UniProt P36888, D835Y); experiment: KinomeScan; format: binding; settings: read-out: % Control
T11 construct: purchased DiscoveRx (Fremont, CA)

TAK1 = target: T12, TAK1 (Homo sapiens, UniProt O43318); experiment: KinomeScan; format: binding; settings: read-out: % Control
T12 construct: purchased DiscoveRx (Fremont, CA)

RAF1 = target: T13, RAF1 (Homo sapiens, UniProt P04049); experiment: KinomeScan; format: binding; settings: read-out: % Control
T13 construct: purchased DiscoveRx (Fremont, CA)

[1] = target: T14, RSK4(Kin.Dom.2-C-terminal) (Homo sapiens, UniProt Q9UK32); experiment: KinomeScan; format: binding; settings: read-out: % Control
T14 construct: RSK4(Kin.Dom.2-C-terminal); purchased DiscoveRx (Fremont, CA)

MLCK = target: T15, MLCK (Homo sapiens, UniProt Q32MK0); experiment: KinomeScan; format: binding; settings: read-out: % Control
T15 construct: purchased DiscoveRx

U87 spheroids = experiment: GBM spheroid assay; format: cell-based, human
Method: One thousand cells per well were plated in an ultra-low attachment, round-bottomed, 96-well plate, and spheroids were allowed to form for 3 days. Wells were then exposed to concentrations of vehicle, OGM2 or TMZ or a combination for 3 days. Spheroids were imaged in brightfield at 10× using z-stacks that were collapsed into z-projections in the Gen5 software using the LionheartFx (BioTek™). Automated measurements of the spheroid area were obtained using Gen5 software.
Tumor spheroid cultures are a more physiological model of tumor growth than typical 2D cell culture. Temozolomide sensitive U87 (FIG. 20A) and Temozolomide insensitive U138 (FIG. 20B) glioblastoma cell lines were plated in low attachment round bottom 96-well plates and allowed to form tumor spheroids for 3 days (T0). At T0, spheroids were imaged using Lionheart™ (HCS) High-Content Imaging Systems (Biotek™) and then were exposed to increasing doses of either Temozolomide or OGM2. After 5 days of treatment the spheroids were imaged again (T5). The size (area) of the spheroids after 5 days of treatment was quantified, and the average size of the spheroids at TO is depicted in red.
A GPR68-positive allosteric modulator, Ogerin, was tested. U87glioblastoma cells were plated in low attachment round bottom 96-well plates and allowed to form tumor spheroids for 3 days (TO). These spheroids were treated with Vehicle (DMSO), 10 μM/20 μM Ogerin or 10 μM/20 μM Ogremorphin-2 (OGM2). The spheroids were placed in the Lionheart™ HCS equipped with environmental control (5% CO2 at 37° C.) and imaged every 12 hours.
Spheroids were formed over 3 days using low attachment 96-well round bottom plates and then treated with DMSO or OGM2 in either pH 8 buffered media or pH 6.2 buffered media and grown for 3 days. The size (area) of spheroids was measured in relative area units. […] This increase in growth was abrogated by OGM2.

A549 = experiment: Liperfluo lipid peroxidation; format: cell-based, human; settings: OGM2 and ionizing radiation
Method: Where appropriate, ANOVA, or student's T-test were conducted in PRISM. Chi squared T(X) was used for Liperfluo analysis. A value T(X)>4 implies that the two distributions are different with a p<0.01 (99% confidence). For drug interaction and therapeutic interaction, the coefficient of drug interaction (CDI) was calculated as follows: CDI=AB/(A×B). According to the impact of each group, AB is the value of combined treatment and A or B is the value of the single agent group to control group.
Radiation, like OGM2, induces lipid peroxidation in addition to DNA damage. OGM was tested for its ability to sensitize lung and pancreatic cancers to radiation induced lipid peroxidation and ferroptosis. Cells were incubated at 37° C. in 5% CO2 in […] DMEM with DMSO, OGM2, or Erastin for 3 days. Then 2.5 μM Liperfluo in 3 ml fresh media was added and cells were incubated at 37° C. in 5% CO2 for 1 hour. Cells were then trypsinized, pelleted, and resuspended in cell sorting media (1% BSA and 1 mM EDTA in PBS pH 7.4). A BD LSR II was used to record Ten thousand events and the data processed with FlowJo v10.8. […] All treatments were highly significant with Chi-squared >4 indicating a p<0.01.

Compound	remaining binding at 10 µM (PRKX) [%]	remaining binding at 10 µM (LTK) [%]	remaining binding at 10 µM (PIK3CA(C420R)) [%]	remaining binding at 10 µM (PCTK3) [%]	remaining binding at 10 µM (KIT(L576P)) [%]	remaining binding at 10 µM (DAPK2) [%]	remaining binding at 10 µM (MYO3B) [%]	remaining binding at 10 µM (CHEK1) [%]	remaining binding at 10 µM (DCAMKL1) [%]	remaining binding at 10 µM (FLT4) [%]	remaining binding at 10 µM (PIK3CA(E545A)) [%]	remaining binding at 10 µM (FLT3(D835Y)) [%]	remaining binding at 10 µM (TAK1) [%]	remaining binding at 10 µM (RAF1) [%]	remaining binding at 10 µM [1] [%]	remaining binding at 10 µM (MLCK) [%]	spheroid growth rate (U87 spheroids)	spheroid growth, comparison with TMZ (U87 spheroids)	increase in spheroid growth at pH 6.2 versus pH 8 (U87 spheroids; 3 days)	CDI, lipid peroxidation (A549)
CCc1ccc2c(c1)C1(NN=C(c3cccc4ccccc34)S1)C(=O)N2 (centres unmarked) [OGM1, 5-ethyl-5′-naphthalen-1-ylspiro[1H-indole-3,2′-3H-1,3,4-thiadiazole]-2-one]	98	100	100	99	82	89	100	100	72	100	81	100	72	100	41	100	–	–	–	–
CCc1ccc2c(c1)C1(NN=C(c3ccccc3)S1)C(=O)N2 (centres unmarked) [OGM2]	–	–	–	–	–	–	–	–	–	–	–	–	–	–	–	–	impaired spheroid growth rate	more potent inhibitor of U87 spheroid growth than TMZ	abrogated	< 0.232
